“Also recorded” adds a separate entry of the source.
Legend:
[1] = test system: serine hydrolases in HEK293T cell lysates; test: Gel-based ABPP with fluorophosphonate probe (FP); format: binding, human; conditions: inhibitor up to 100 μM
From the text: To further explore other possible targets of inhibitors 1-4, an activity-based protein profiling (ABPP) approach was used to assay their activity against a wide variety of serine hydrolases in bacterial and mammalian proteomes. […] One limitation of this assay is that ClbP is not labeled by the FP probe, so it cannot be observed as a reference for binding. Any other proteins which evade labeling by FP would also not be detected in this assay.
Activity-Based Protein Profiling. Bacterial or mammalian cell lysates were normalized to 1 mg/mL protein concentrations in PBS using the DC protein assay (Bio-Rad). 50 μL aliquots of lysates were incubated with compounds at the indicated concentrations (1 μL of a 50X stock in DMSO) for 30 minutes at room temperature and subsequently labeled with 5 μM of fluorophosphonate-PEG(4)-biotin probe (1 μL of a 50X stock in DMSO, synthesized as previously reported)^56 for 1 hour at room temperature. The reactions were mixed with 50 μL of 2X SDS protein loading buffer, boiled for 10 minutes at 95° C., and separated by SDS-PAGE. The labeled proteins were detected by IRdye-conjugated streptavidin (Li-Cor) and visualized using the GellOdyssey™ Imaging System (Li-Cor).^56

[2] = test system: HeLa cells infected with NC101; test: DNA adduct detection by LC-MS; format: cell-based, human; conditions: 1 μM 3
Experimental: DNA adduct detection. Infections for DNA adduct detection were carried out using the protocol described above in 6-well plates where all volumes and cell numbers were increased by a factor of 4 accordingly. After trypsinization, cell pellets were frozen at −80° C. until analysis. DNA was isolated from cells as previously reported.^15 DNA samples (100 μL, 31-48 μg) in silanized glass vials were incubated at 80° C. for 1 hour. After the incubation, samples were allowed to cool to room temperature, and volumes were increased to 200 μL by adding LC-MS grade water. Samples were filtered using a Centrifree Ultrafiltration Device (30K molecular weight, Millipore Sigma) at 2000× g for 15 minutes. Samples were dried under vacuum and stored at −20° C. Mass spectrometric data was acquired with the following conditions. The dried samples were reconstituted in 10 μL of H2O and 4 μL of the resulting solution were injected onto an UltiMate 3000 RSLCnano UPLC (Thermo Fisher Scientific) system equipped with a 5 μL injection loop. Separation was performed with a capillary column (75 μm ID, 20 cm length, 10 μm orifice) created by hand packing a commercially available fused-silica emitter (New Objective, Woburn, MA) with 5 μm Luna C18 bonded separation media (Phenomenex, Torrance, CA). […]

[3] = molecular target: E. coli BL21 overexpressing ClbP (Escherichia coli, UniProt Q0P7K6); test: ClbP fluorescence activity assay (live cells); format: cell-based
Experimental: ClbP fluorescence activity assay (live cells). One 5 mL starter culture each E. coli BL21 pET-29b-ClbP and pET-29b-ClbP-S95A were inoculated from frozen stocks and grown overnight at 37° C. in LB medium supplemented with 50 μg/ml kanamycin (LB+kan). Overnight cultures were diluted 1:100 in fresh LB+kan and incubated at 37° C. to an OD600 of 0.3, at which point protein expression was induced by the addition of 500 μM isopropyl β-D-1-thiogalactopyranoside (IPTG) and cultures were moved to 15° C. for 4 hours. Cultures were then aliquoted in a black 384-well plate and the appropriate concentration of inhibitor was added as a DMSO stocks to a final concentration of 1% DMSO in a volume of 30 μL. Reactions were initiated by the addition of 10 μL of LB+kan+IPTG containing the fluorogenic substrate (final concentration=100 μM). Plastes were incubated at 25° C. with intermittent shaking while taking regular fluorescence measurements in a Bio-Tek Synergy HTX multimode plate reader with an excitation filter of 360/40 nm and an emission filter of 440/20 nm. “% activity” was determined based on the formula above using RFU measurements after 7 hours.

Klebsiella oxytoca = test: Bacterial MIC assay (broth dilution); format: cell-based; conditions: 15 h, read-out: MICs by compound
Escherichia coli NC101 = test: Bacterial MIC assay (broth dilution); format: cell-based; conditions: Escherichia coli, NC101, 15 h, read-out: MICs by compound
Experimental: MICs of compounds against different bacterial species were determined using a modified version of a broth microdilution protocol which has been previously reported.^1 Briefly, cultures of each species indicated were inoculated from frozen stocks in deoxygenated Wilkins-Chalgren Anaerobic Medium (WCAM) inside of an anerobic chamber with an 92.5% N2/5% CO2/2.5% H2 atmosphere. Cultures were grown for 24-48 hours in a 37° C. incubator at which point an OD600-measurement was taken for each culture and was accordingly diluted in fresh WCAM to an equivalent of OD600=0.01. Diluted cultures were then distributed into the wells of a clear, flat-bottom 384-well plate and the compound of interest was added to a final DMSO concentration of 2% (or DMSO only for positive controls). […] mineral oil (Millipore Sigma) was deposited on top of the cultures and plates were covered with a clear adhesive plate seal. Plates were incubated at 37° C. for 16 hours, at which point the OD600 of all wells was recorded on a SpectraMax M2 plate reader (Molecular Devices).

`CC1(C)OB([C@@H](CC(N)=O)NC(=O)CCCc2ccccc2)OC1(C)C` [Compound 3] was tested, and the “change in protein labeling by FP probe” value [1] was “does not identify any significant targets”, the “colibactin-derived DNA adduct formation” value [2] was “could effectively suppress formation of a colibactin-derived DNA adduct; also recorded: sufficient to suppress adduct formation to a degree similar to genetic deletion of clbP; also recorded: prevents” and the IC50 [3] was 18.3 nM. The MIC (Klebsiella oxytoca) was greater than 200 µM and the MIC (Escherichia coli NC101) was greater than 200 µM.
